Experimental data as given in article PMC11270968, “Antiplasmodial potential of isolated xanthones from Mesua ferrea Linn. roots: an in vitro and in silico molecular docking and pharmacokinetics study” (BMC Complementary Medicine and Therapies, 2024).
In brackets after ≈: the same amount, converted by molar mass. Entries after “also recorded” stand apart in the source; their conditions may differ. Where two headings read alike, the source gives them in different places.

Key:
P. falciparum K1 strain = assay: in vitro antiplasmodial activity, parasite lactate dehydrogenase (pLDH) assay; type: cell-based, Plasmodium falciparum; conditions: for Selectivity index (SI): CC50 Vero cells / IC50 P. falciparum K1; for antiplasmodial activity classification of pure compounds: P. falciparum K1, class by IC50; for IC50: Plasmodium falciparum, read-out: IC50 ± SD P. falciparum K1
[1] = in vitro cytotoxicity, MTT assay; type: cell-based; conditions: African green monkey, pure compounds and doxorubicin, 48 h, mean ± SD of three determinations; for CC50 at 48 h: Vero cells
Experimental: (§1) The purpose of this study was to determine the cytotoxicity of crude extracts and pure compounds isolated from M. ferrea roots on Vero cells. The MTT assay was performed according to an established protocol. Briefly, Vero cells were cultured in Dulbecco’s Modified Eagle Medium (Gibco, USA) supplemented with 10% fetal bovine serum (FBS) (Sigma-Aldrich, New Delhi, India). Vero cell suspensions were seeded onto 96-well culture plates at a density of 1 × 10^4 cells per well. The seeded culture plates were incubated at 37 °C in a 5% CO2 atmosphere for 24 h to facilitate cell attachment. Subsequently, the cultured cells were exposed to the test extracts and pure compounds in triplicate for each concentration. Doxorubicin (Sigma-Aldrich, India) was used as a positive control, whereas DMSO served as a negative control. All extracts and pure compounds were dissolved in DMSO and added to the medium at a final concentration of 0.5% DMSO. Plates containing the test samples were incubated at 37 °C in a 5% CO2 atmosphere for 48 h. Following incubation, the cell culture supernatant was discarded, and 50 µL of MTT solution (5 mg/mL) (Thermo Fisher Scientific, Oregon, USA) was added to each well. The test plates were then incubated at 37 °C in a 5% CO2 atmosphere for 2 h. Subsequently, the supernatant was discarded, and 100 µL/well of DMSO was added to induce cell lysis and dissolve the formazan crystals. To estimate the reactions, absorbance was measured at 560 nm in a microplate reader, and the background absorbance at 670 nm was subtracted.

Vero cells = assay: in vitro cytotoxicity, MTT assay; type: cell-based; conditions: Vero cells, toxic when CC50 < 100 µM
Experimental: as §1

P. falciparum 3D7 = test system: P. falciparum 3D7; set-up: method as in PMID 37029625; conditions: chloroquine-sensitive P. falciparum 3D7; read-out: IC50 antiplasmodial activity; cited from earlier work
[2] = test system: P. falciparum FcB1/Colombia; set-up: method as in PMID 15474559; conditions: chloroquine-resistant P. falciparum FcB1/Colombia; cited from earlier work
PfLDH = conditions: cited from earlier work
heme polymerization = test system: heme polymerization; set-up: method as in PMID 9199506; conditions: cited from earlier work
P. falciparum D6 = conditions: cited from earlier work
[3] = K1, pure compounds and reference drugs, 72 h, mean ± SD of three determinations
[4] = ratio of IC50 against P. falciparum K1

Row | Structure (SMILES) | antiplasmodial activity classification of pure compounds (P. falciparum K1 strain) | IC50 (P. falciparum K1 strain; [3]) [µM] | CC50 at 48 h [1] [µM] | cytotoxicity classification of pure compounds (Vero cells) | other results
1 | O=c1c2cccc(O)c2oc2cccc(O)c12 [Compound 4, 1,5-dihydroxyxanthone] | low (low activity (IC50 100−200 µM)) | 107 ± 4.41 | 416.7 ± 1.98 | non-toxic | Selectivity index (SI) (P. falciparum K1 strain): 3.89
2 | C=CC(C)(C)c1c2c(c(O)c3c(=O)c4ccc(O)c(O)c4oc13)C=CC(C)(C)O2 [macluraxanthone] | – | – | – | – | IC50 (P. falciparum 3D7): 4.28 µM
3 | C=CC(C)(C)c1c2c(c(O)c3c(=O)c4cccc(O)c4oc13)C=CC(C)(C)O2 [caloxanthone C] | – | – | – | – | IC50 antiplasmodial activity [2]: 1.3 µg/mL (≈ 3.44 µM)
4 | CCN(CC)CCCC(C)Nc1ccnc2cc(Cl)ccc12 (centres unmarked) [Chloroquine, chloroquine, reference compound] | – | – | – | – | IC50 (P. falciparum K1 strain; K1, 72 h): 0.32 µM; PfLDH inhibition (PfLDH): weak inhibitor
5 | COc1c(O)ccc2oc3c(O)cccc3c(=O)c12 [Compound 7, 2,5-dihydroxy-1-methoxyxanthone] | moderate (moderate activity (IC50 20−100 µM)) | 46.3 ± 1.65 | 587.9 ± 2.18 | non-toxic | Selectivity index (SI) (P. falciparum K1 strain): 12.70
6 | CC1(C)C=Cc2cc3c(=O)c4c(O)cccc4oc3c(O)c2O1 [Compound 5, rheediachromenoxanthone] | good (good activity (IC50 1−20 µM)) | 19.9 ± 0.72 | 112 ± 1.54 | no toxicity; also recorded: non-toxic | fold less potent than artesunate (P. falciparum K1 strain; [4]): ~6,643.3 fold; fold less potent than chloroquine (P. falciparum K1 strain; [4]): approximately 62.3 fold; times more potent than 2,5-dihydroxy-1-methoxyxanthone (7) (P. falciparum K1 strain; [4]): approximately 2.3 times; cytotoxicity classification of pure compounds (Vero cells; listed as Rheediachromenoxanthone): non-toxicity
7 | O=c1c2ccc(O)cc2oc2cccc(O)c12 [Compound 3, 1,6-dihydroxyxanthone] | inactive | 226.1 ± 1.32 | – | non-toxic | CC50 ([1]; read-out: CC50 ± SD Vero cells): 182.8 ± 1.62 µM
8 | COc1cc2c(=O)c3ccc(OC)c(OC)c3oc2c(OC)c1OC [2,3,4,5,6-pentamethoxyxanthone] | – | – | – | – | heme polymerization inhibition (heme polymerization): no in vitro antiplasmodial activity or heme polymerization; in vitro antiplasmodial activity (P. falciparum D6; same study as pentahydroxyxanthone): no in vitro antiplasmodial activity
9 | COc1ccc2oc3cccc(O)c3c(=O)c2c1 [Compound 1, 1-hydroxy-7-methoxyxanthone] | inactive | 346 ± 3.51 | 195.8 ± 1.68 | non-toxic | –
10 | COc1cccc2c1C(=O)c1c(O)c3c(c(O)c1C2=O)C[C@@](O)(C(=O)CO)C[C@@H]3O[C@H]1C[C@H](N)[C@H](O)[C@H](C)O1 [Doxorubicin, reference compound] | – | – | 3.35 ± 0.28 | – | –
11 | COc1cccc2c(=O)c3c(O)cccc3oc12 [Compound 2, 1-hydroxy-5-methoxyxanthone] | low (low activity (IC50 100−200 µM)) | 164 ± 1.71 | 62 ± 1.18 | toxic (pure compounds are considered toxic to cells when the CC50 value is less than 100 µM) | –
12 | O=c1c2cccc(O)c2oc2cc(O)cc(O)c12 [1,3,5-trihydroxyxanthone] | – | – | – | – | IC50 antiplasmodial activity [2]: 24.7 µg/mL (≈ 101 µM); IC50 (P. falciparum D6; P. falciparum D6, read-out: IC50 antiplasmodial activity): > 60 µM
13 | COc1cc(O)c2c(=O)c3cccc(O)c3oc2c1 [Compound 6, 1,5-dihydroxy-3-methoxyxanthone] | low (low activity (IC50 100−200 µM)) | 198 ± 2.43 | 210.2 ± 1.74 | non-toxic | –
14 | O=c1c2ccc(O)c(O)c2oc2c(O)c(O)c(O)cc12 [2,3,4,5,6-pentahydroxyxanthone] | – | – | – | – | IC50 (heme polymerization; read-out: IC50 in vitro heme polymerization): 1.2 µM; IC50 (P. falciparum D6; chloroquine-sensitive P. falciparum D6, read-out: IC50 in vitro antiplasmodial activity): 0.4 µM
15 | CC1(C)C=Cc2c(cc(O)c3c(=O)c4ccc(O)c(O)c4oc23)O1 [isojacareubin] | – | – | – | – | IC50 (P. falciparum 3D7): 11.5 µM
16 | C[C@H]1[C@H](OC(=O)CCC(=O)O)O[C@@H]2O[C@@]3(C)CC[C@H]4[C@H](C)CC[C@@H]1[C@@]24OO3 [Artesunate, artesunate, reference compound] | – | 0.003 | – | – | –
